Patent US20120088668A1, “THINNING AGENT” (TAMINCO, NAAMLOZE VENNOOTSCHAP, priority 2009, published 2012)

Key:
[1] = test system: Chrysanthemum cv Herby Mixed; assay: Flower bud thinning, Chrysanthemum cv Herby Mixed: auxin/auxin precursor with or without acetaminophen; format: in vivo; settings: for Mean Number of Buds/plant: auxins/precursors each at 10^−2 Molar solutions, AC at 3 g per hectare equivalent, applied 2 Dec. 2009 (first bud), measured 12 Jan. 2010 (flowering); for % Improvement over control ie (C) minus (A) or (B)/(C × 100): reduction of buds/plant against Control (C)
Method: Cultural Details: plants were sown in a commercial seed compost and then “pricked out” into a professional grade all-purpose compost in 9 cm pots set out in a randomized block design. Normal daylight plus supplementary lighting to provide a minimum of 10 hours per day. Heating was given to a minimum of 60 degrees Fahrenheit during the day and 40 degrees F. at night.
Sowing Date: 5 Oct. […] Application Date: 2 Dec. […] Measurement Date: 12 Jan. […] Measurement: Number of buds per plant.
A number of auxins or auxin precursors were applied, each at 10^−2 Molar solutions. Addition of acetaminophen (AC) was at 3 g per hectare equivalent in each test.

[2] = test system: Chrysanthemum cv Herby Mixed; assay: Flower bud thinning, Chrysanthemum cv Herby Mixed: agrochemically acceptable additives with AN or AN + AC; format: in vivo; settings: for Mean Number of Buds/plant: AN 1 g, AC 3 g actives per hectare in 250 litres water, additive per ha: Glucose 150 g, Succinic acid 50 g, Ascorbic acid 50 g, Corn oil 500 g, L-arginine 30 g, applied 4 Feb. 2010 (first bud), measured 12 Mar. 2010
Method: Cultural Details: plants were sown in a commercial seed compost and then “pricked out” into a professional grade all-purpose compost in 9 cm pots set out in a randomized block design. Normal daylight plus supplementary lighting to provide a minimum of 10 hours per day. Heating was given to a minimum of 60 degrees Fahrenheit during the day and 40 degrees at night. Certain agrochemically acceptable additives, as examples (rates per ha provided in the Table below), were added to either anthranilic acid ([…], applied in 250 litres water per hectare, […]) or anthranilic acid plus acetaminophen (1 gram per litre and 3 gram per litre solution respectively, applied in 250 litres water per hectare, =1 g and 3 g actives total respectively per hectare).
Sowing Date: 26 Oct. 2009, in plugs. Application Date: 4 Feb. 2010 (first bud). Measurement Date: 12 Mar. 2010 (flowering). Measurement: Number of buds per plant.

SMILES	Mean Number of Buds/plant [1]	% Improvement over control ie (C) minus (A) or (B)/(C × 100) [1]	Mean Number of Buds/plant [2]	% Improvement over untreated ([2]; reduction of buds/plant against Untreated)
Nc1c(O)cccc1C(=O)O [3-Hydroxyanthranilic acid]	2.5	+7.4%		
CC(=O)Nc1ccc(O)cc1 [AC, N-(4-hydroxypheyl)acetamide, reference compound]	2.7		2.8	
CC(N)=O [Acetamide]	2.3	+14.8%		
Nc1ccccc1C(=O)[O-].[Na+] [Anthranilic Acid monosodium salt]	2.3	+14.8%		
COC(=O)c1ccccc1N [Anthranilic acid methyl ester]	2.2	+18.5%		
Nc1ccccc1C(=O)O [Anthranilic acid, anthranilic acid]	2.2	+18.5%	2.3	+17.8%
NC(=O)Cc1c[nH]c2ccccc12 [Indole-3-acetamide]	2.3	+14.8%		
N[C@@H](Cc1c[nH]c2ccccc12)C(=O)O [L-Tryptophan]	2.4	+11.1%		
NCCc1c[nH]c2ccccc12 [Tryptamine]	2.7	+0.0%		
